# In patent US12121614B2, “Delayed release composition for peroral administration” (VICORE PHARMA AB, priority 2020, dated 2024):
# Assay: Dissolution studies of C21 sodium salt in buffers of different pH
# Type: physicochemical
# Conditions: Zwitterion formed at intermediated pHs; conclusion from experiments (A)-(E)
# Method: 50.7 mg of C21 sodium salt (Ardena, Riga, Latvia) was added to 900 mL of 0.09M carbonate buffer (pH 8.95) at a temperature of 37±3° C. with stirring. […] After 15 minutes of stirring, 2M acetic acid solution was added dropwise to provide a pH of 4.52. Evolution CO2 was noted. […] After additional stirring for a further 1.5 hours, 1M NaOH was added to increase pH to 6.8.
# 51.2 mg of C21 sodium salt was added to 900 mL of acetate buffer (pH 4.4) at the same temperature with stirring. […] After stirring for 1 hour, 1M NaOH solution was added dropwise to increase the pH to 7.2.
# 53.2 mg of C21 sodium salt was added to 900 mL 0.1M of HCl buffer (pH 1.0) at the same temperature with stirring. […] After 20 minutes of stirring, 1M NaOH solution was added dropwise to increase the pH to 4.5.
# 51.0 mg of C21 sodium salt was added to 900 mL of 0.1M citrate buffer (pH 4.42) at the same temperature with stirring. The added compound formed a thin slurry. It seemed that nothing had dissolved.
# 50.8 mg of C21 sodium salt was added to 900 mL of an acetate buffer (pH 4.49) at the same temperature. […] After stirring for 1 hour, a 1M NaOH solution was added dropwise to increase the pH to 6.8.
smiles,measurement,value
"CCCCOC(=O)NS(=O)(=O)c1sc(CC(C)C)cc1-c1ccc(Cn2ccnc2)cc1 [C21, N-butyloxycarbonyl-3-(4-imidazol-1-ylmethylphenyl)-5-iso-butylthiophene-2-sulfonamide]",solubility of C21's Zwitterion,insoluble
